Source: PubChem BioAssay (NCI)
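These data come from cells grown in 96-well plates and exposed to compound for 48 hours at five concentrations. GI50: concentration for 50% inhibition of growth. TGI: concentration producing complete growth inhibition.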

Key:
Experiment in all cases: NCI anticancer screen, dose series, 48 h
786-0 renal = system: 786-0 renal
A498 renal = system: A498 renal
A549 NSCLC = system: A549 NSCLC
ACHN renal = system: ACHN renal
BT-549 breast = system: BT-549 breast
CAKI-1 renal = system: CAKI-1 renal
CCRF-CEM leukemia = system: CCRF-CEM leukemia
COLO 205 colon = system: COLO 205 colon
DU-145 prostate = system: DU-145 prostate
EKVX NSCLC = system: EKVX NSCLC
HCC-2998 colon = system: HCC-2998 colon
HCT-116 colon = system: HCT-116 colon
HCT-15 colon = system: HCT-15 colon
HOP-62 NSCLC = system: HOP-62 NSCLC
HOP-92 NSCLC = system: HOP-92 NSCLC
HS 578T breast = system: HS 578T breast
HT29 colon = system: HT29 colon
IGROV1 ovarian = system: IGROV1 ovarian
K-562 leukemia = system: K-562 leukemia
KM12 colon = system: KM12 colon
LOX IMVI melanoma = system: LOX IMVI melanoma
M14 melanoma = system: M14 melanoma
MALME-3M melanoma = system: MALME-3M melanoma
MCF7 breast = system: MCF7 breast
MDA-MB-231 breast = system: MDA-MB-231 breast
MDA-MB-435 = system: MDA-MB-435
MOLT-4 leukemia = system: MOLT-4 leukemia
NCI-H226 lung = system: NCI-H226 lung
NCI-H23 lung = system: NCI-H23 lung
NCI-H460 lung = system: NCI-H460 lung
NCI-H522 lung = system: NCI-H522 lung
NCI/ADR-RES ovarian = system: NCI/ADR-RES ovarian
OVCAR-3 ovarian = system: OVCAR-3 ovarian
OVCAR-4 ovarian = system: OVCAR-4 ovarian
OVCAR-5 ovarian = system: OVCAR-5 ovarian
OVCAR-8 ovarian = system: OVCAR-8 ovarian
PC-3 prostate = system: PC-3 prostate
RPMI-8226 leukemia = system: RPMI-8226 leukemia
RXF 393 renal = system: RXF 393 renal
SF-268 CNS = system: SF-268 CNS
SF-295 CNS = system: SF-295 CNS
SF-539 CNS = system: SF-539 CNS
SK-MEL-2 melanoma = system: SK-MEL-2 melanoma
SK-MEL-28 melanoma = system: SK-MEL-28 melanoma
SK-MEL-5 melanoma = system: SK-MEL-5 melanoma
SN12C renal = system: SN12C renal
SNB-19 CNS = system: SNB-19 CNS
SNB-75 CNS = system: SNB-75 CNS
SR leukemia = system: SR leukemia
SW-620 colon = system: SW-620 colon
T-47D breast = system: T-47D breast
TK-10 renal = system: TK-10 renal
U251 CNS = system: U251 CNS
UACC-257 melanoma = system: UACC-257 melanoma
UACC-62 melanoma = system: UACC-62 melanoma
UO-31 renal = system: UO-31 renal
HL-60(TB) leukemia = system: HL-60(TB) leukemia
SK-OV-3 ovarian = system: SK-OV-3 ovarian

Cc1nc2ccccc2c(=O)n1-c1n[nH]c2ccccc12
TGI (786-0 renal): > 100 µM
TGI (A498 renal): > 100 µM
TGI (A549 NSCLC): > 100 µM
TGI (ACHN renal): > 100 µM
TGI (BT-549 breast): > 100 µM
TGI (CAKI-1 renal): > 100 µM
TGI (CCRF-CEM leukemia): > 100 µM
TGI (COLO 205 colon): > 100 µM
TGI (DU-145 prostate): > 100 µM
TGI (EKVX NSCLC): > 100 µM
TGI (HCC-2998 colon): > 100 µM
TGI (HCT-116 colon): > 100 µM
TGI (HCT-15 colon): > 100 µM
TGI (HOP-62 NSCLC): > 100 µM
TGI (HOP-92 NSCLC): > 100 µM
TGI (HS 578T breast): > 100 µM
TGI (HT29 colon): > 100 µM
TGI (IGROV1 ovarian): > 100 µM
TGI (K-562 leukemia): > 100 µM
TGI (KM12 colon): > 100 µM
TGI (LOX IMVI melanoma): > 100 µM
TGI (M14 melanoma): > 100 µM
TGI (MALME-3M melanoma): > 100 µM
TGI (MCF7 breast): > 100 µM
TGI (MDA-MB-231 breast): > 100 µM
TGI (MDA-MB-435): > 100 µM
TGI (MOLT-4 leukemia): > 100 µM
TGI (NCI-H226 lung): > 100 µM
TGI (NCI-H23 lung): > 100 µM
TGI (NCI-H460 lung): > 100 µM
TGI (NCI-H522 lung): > 100 µM
TGI (NCI/ADR-RES ovarian): > 100 µM
TGI (OVCAR-3 ovarian): > 100 µM
TGI (OVCAR-4 ovarian): > 100 µM
TGI (OVCAR-5 ovarian): > 100 µM
TGI (OVCAR-8 ovarian): > 100 µM
TGI (PC-3 prostate): > 100 µM
TGI (RPMI-8226 leukemia): > 100 µM
TGI (RXF 393 renal): > 100 µM
TGI (SF-268 CNS): > 100 µM
TGI (SF-295 CNS): > 100 µM
TGI (SF-539 CNS): > 100 µM
TGI (SK-MEL-2 melanoma): > 100 µM
TGI (SK-MEL-28 melanoma): > 100 µM
TGI (SK-MEL-5 melanoma): > 100 µM
TGI (SN12C renal): > 100 µM
TGI (SNB-19 CNS): > 100 µM
TGI (SNB-75 CNS): > 100 µM
TGI (SR leukemia): > 100 µM
TGI (SW-620 colon): > 100 µM
TGI (T-47D breast): > 100 µM
TGI (TK-10 renal): > 100 µM
TGI (U251 CNS): > 100 µM
TGI (UACC-257 melanoma): > 100 µM
TGI (UACC-62 melanoma): > 100 µM
TGI (UO-31 renal): > 100 µM

O=S(=O)(C(=Ic1ccccc1)S(=O)(=O)C(F)(F)C(F)(F)C(F)(F)C(F)(F)F)C(F)(F)C(F)(F)C(F)(F)C(F)(F)F
TGI (786-0 renal): 29.5 µM
TGI (A498 renal): 28.6 µM
TGI (A549 NSCLC): 34.3 µM
TGI (ACHN renal): 19.3 µM
TGI (BT-549 breast): 28.5 µM
TGI (CAKI-1 renal): 25.9 µM
TGI (CCRF-CEM leukemia): 18.1 µM
TGI (COLO 205 colon): 21.8 µM
TGI (EKVX NSCLC): 37.1 µM
TGI (HCC-2998 colon): 40.4 µM
TGI (HCT-15 colon): 33.7 µM
TGI (HL-60(TB) leukemia): 62 µM
TGI (HOP-62 NSCLC): 30.7 µM
TGI (HOP-92 NSCLC): 23.1 µM
TGI (HS 578T breast): 56.9 µM
TGI (HT29 colon): 31.4 µM
TGI (IGROV1 ovarian): 36.9 µM
TGI (K-562 leukemia): 16.4 µM
TGI (KM12 colon): 41.7 µM
TGI (LOX IMVI melanoma): 28 µM
TGI (M14 melanoma): 28.2 µM
TGI (MALME-3M melanoma): 26.1 µM
TGI (MCF7 breast): 18.1 µM
TGI (MDA-MB-231 breast): 55.4 µM
TGI (MDA-MB-435): 36.8 µM
TGI (MOLT-4 leukemia): 13.8 µM
TGI (NCI-H226 lung): 15 µM
TGI (NCI-H23 lung): 39.7 µM
TGI (NCI-H460 lung): 32.2 µM
TGI (NCI-H522 lung): 6.09 µM
TGI (NCI/ADR-RES ovarian): 59.8 µM
TGI (OVCAR-3 ovarian): 29.3 µM
TGI (OVCAR-4 ovarian): 14.7 µM
TGI (OVCAR-5 ovarian): 30.9 µM
TGI (PC-3 prostate): 31.6 µM
TGI (RPMI-8226 leukemia): 86.4 µM
TGI (SF-268 CNS): 42.7 µM
TGI (SF-295 CNS): 30.6 µM
TGI (SF-539 CNS): 28.8 µM
TGI (SK-MEL-28 melanoma): 29.4 µM
TGI (SK-MEL-5 melanoma): 27.5 µM
TGI (SK-OV-3 ovarian): 30.4 µM
TGI (SNB-19 CNS): 28.5 µM
TGI (SNB-75 CNS): 28.5 µM
TGI (SR leukemia): 21.9 µM
TGI (SW-620 colon): 20.5 µM
TGI (T-47D breast): 32.5 µM
TGI (TK-10 renal): 29.9 µM
TGI (U251 CNS): 29.5 µM
TGI (UACC-257 melanoma): 32.8 µM
TGI (UACC-62 melanoma): 33.4 µM
TGI (UO-31 renal): 25.8 µM

O=C(CCCn1c(=O)c2sc3ccccc3c2n2nnc(-c3ccccc3)c12)NCCc1cnc[nH]1
GI50 (A498 renal): 1.55 µM
TGI (A498 renal): 3 µM
GI50 (ACHN renal): 1.66 µM
TGI (ACHN renal): 3.02 µM
GI50 (BT-549 breast): 17.3 µM
TGI (BT-549 breast): 41.5 µM
GI50 (CAKI-1 renal): 0.181 µM
TGI (CAKI-1 renal): 1.71 µM
GI50 (COLO 205 colon): 1.1 µM
TGI (COLO 205 colon): 4.8 µM
GI50 (DU-145 prostate): 1.55 µM
TGI (DU-145 prostate): 2.98 µM
GI50 (EKVX NSCLC): 2.7 µM
TGI (EKVX NSCLC): 8.77 µM
GI50 (HCC-2998 colon): 1.77 µM
TGI (HCC-2998 colon): 4.15 µM
GI50 (HCT-116 colon): 0.341 µM
TGI (HCT-116 colon): 1.66 µM
GI50 (HCT-15 colon): 1.26 µM
TGI (HCT-15 colon): 2.51 µM
GI50 (HL-60(TB) leukemia): 1.41 µM
TGI (HL-60(TB) leukemia): 6.36 µM
GI50 (HOP-62 NSCLC): 2.32 µM
TGI (HOP-62 NSCLC): 5.27 µM
GI50 (HT29 colon): 1.36 µM
TGI (HT29 colon): 3.16 µM
GI50 (LOX IMVI melanoma): 1.59 µM
TGI (LOX IMVI melanoma): 2.93 µM
GI50 (MALME-3M melanoma): 2.49 µM
TGI (MALME-3M melanoma): 5.49 µM
GI50 (MCF7 breast): 1.45 µM
TGI (MCF7 breast): 3.08 µM
GI50 (MDA-MB-231 breast): 1.92 µM
TGI (MDA-MB-231 breast): 3.61 µM
GI50 (MDA-MB-435): 1.49 µM
TGI (MDA-MB-435): 3.06 µM
GI50 (NCI-H226 lung): 18.6 µM
TGI (NCI-H226 lung): 37.7 µM
GI50 (NCI-H23 lung): 2.92 µM
TGI (NCI-H23 lung): 11.6 µM
GI50 (NCI-H460 lung): 1.87 µM
TGI (NCI-H460 lung): 3.8 µM
GI50 (NCI-H522 lung): 1.06 µM
TGI (NCI-H522 lung): 11.7 µM
GI50 (NCI/ADR-RES ovarian): 3.22 µM
TGI (NCI/ADR-RES ovarian): > 100 µM
GI50 (OVCAR-3 ovarian): 1.52 µM
TGI (OVCAR-3 ovarian): 3.18 µM
GI50 (OVCAR-8 ovarian): 0.32 µM
TGI (OVCAR-8 ovarian): 2.79 µM
GI50 (RXF 393 renal): 2.52 µM
TGI (RXF 393 renal): 5.02 µM
GI50 (SF-268 CNS): 1.77 µM
TGI (SF-268 CNS): 3.72 µM
GI50 (SF-539 CNS): 0.664 µM
TGI (SF-539 CNS): 2.19 µM
GI50 (SK-MEL-28 melanoma): 1.75 µM
TGI (SK-MEL-28 melanoma): 3.2 µM
GI50 (SK-MEL-5 melanoma): 1.91 µM
TGI (SK-MEL-5 melanoma): 4.11 µM
GI50 (SK-OV-3 ovarian): 3.44 µM
TGI (SK-OV-3 ovarian): 15.7 µM
GI50 (SN12C renal): 0.271 µM
TGI (SN12C renal): 1.87 µM
GI50 (SNB-19 CNS): 1.71 µM
TGI (SNB-19 CNS): 5.04 µM
GI50 (SNB-75 CNS): 1.86 µM
TGI (SNB-75 CNS): 4.03 µM
GI50 (T-47D breast): 1.4 µM
TGI (T-47D breast): 4.49 µM
GI50 (U251 CNS): 1.06 µM
TGI (U251 CNS): 2.24 µM
GI50 (UACC-257 melanoma): 2.04 µM
TGI (UACC-257 melanoma): 4.58 µM
GI50 (UACC-62 melanoma): 1.91 µM
TGI (UACC-62 melanoma): 3.56 µM
